Laboratory results from patent publication US11827628B2, “Compositions and methods for inhibition of the JAK pathway” (Rigel Pharmaceuticals, Inc., priority 2005, dated 2023).
Like-named read-outs stand apart in the source and are kept apart here.

Key:
[1] = tested on: IL-4 stimulated expression of CD23 in human Ramos B cells (JAK-1 and JAK-3); test: Assay for Ramos B-Cell Line Stimulated with IL-4 (CD23 upregulation, FACS); assay type: cell-based; conditions: read-out: IC50, Example 41
Outline: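 Compound effect on IL-4-driven JAK1/JAK3 signalling is gauged as CD23 surface expression, measured by FACS after 20-24 h of stimulation with IL-4 at 50 units/mL final. A 1 h compound pre-treatment at 37 °C precedes stimulation, and IC50 is derived from the results.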

Primary human T-cells = test: Primary Human T-Cell Proliferation Assay Stimulated with IL-2 (CellTiter-Glo); assay type: cell-based; conditions: read-out: IC50, Example 42
Outline: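 Peripheral blood T-cells pre-activated with anti-CD3/anti-CD28 and IL-2 were washed free of IL-2, then cultured with compound plus IL-2 for 72 hours at 37° C, duplicate wells. Viability read as ATP by CellTiter-Glo luminescence; IC50 reported.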

[2] = Homo sapiens, Ramos, Ramos B cells stimulated with IL-4, CD23 expression by FACS
[3] = Homo sapiens, T-cell, primary human T-cells stimulated with IL-2, proliferation
[4] = Ramos B cells stimulated with IL-4, CD23 expression by FACS
[5] = primary human T-cells stimulated with IL-2, proliferation
[6] = Ramos B-cell line stimulated with IL-4, CD23 expression by FACS
[7] = primary human T-cell proliferation stimulated with IL-2

Molecule	IC50 [1, 2] [nM]	IC50 (Primary human T-cells; [3]) [nM]	other results
Cc1ccc(Nc2ncc(F)c(Nc3ccc(CCCCF)cc3)n2)cc1S(N)(=O)=O [VI-93, N2-(3-Aminosulfonyl-4-methylphenyl)-5-fluoro-N4-[4-(4-fluorobutyl)phenyl]-2,4-pyrimidinediamine]	110	560	–
N#Cc1cc(Nc2nc(Nc3cccc(S(N)(=O)=O)c3)ncc2F)ccc1F [VI-98, N2-(3-Aminosulfonylphenyl)-N4-(3-cyano-4-fluorophenyl)-5-fluoro-2,4-pyrimidinediamine]	136	986	–
Cc1ccc(Nc2nc(Nc3cccc(S(N)(=O)=O)c3)ncc2F)cc1C#N [VI-99, N2-(3-Aminosulfonylphenyl)-N4-(3-cyano-4-methylphenyl)-5-fluoro-2,4-pyrimidinediamine]	68.5	617	–
COc1ccc(Nc2nc(Nc3ccc(S(N)(=O)=O)cc3)ncc2F)cc1Cl [VI-106, N2-(4-Aminosulfonylphenyl)-5-fluoro-N4-(4-methoxy-3-chlorophenyl]-2,4-pyrimidinediamine]	62.2	1200	–
NS(=O)(=O)c1ccc(Nc2ncc(F)c(Nc3ccc(Cl)c(Cl)c3)n2)cc1 [VI-109, N2-(4-Aminosulfonylphenyl)-N4-(3,4-dichlorophenyl)-5-fluoro-2,4-pyrimidinediamine]	136	2870	–
COc1ccc(Nc2nc(Nc3cccc(S(N)(=O)=O)c3)ncc2F)nc1N [VII-7, N2-(3-Aminosulfonylphenyl)-N4-(2-amino-3-methoxypyrid-6-yl)-5-fluoro-2,4-pyrimidinediamine]	502	3920	–
COc1ccc(Nc2nc(Nc3ccc(Cl)c(S(N)(=O)=O)c3)ncc2F)nc1N [VII-8, N2-(3-Aminosulfonyl-4-chlorophenyl)-N4-(2-amino-3-methoxypyrid-6-yl)-5-fluoro-2,4-pyrimidinediamine]	399	8630	–
CNC(=O)N1CCCc2cc(Nc3nc(Nc4cccc(S(N)(=O)=O)c4)ncc3F)ccc21 [VII-20, N2-(3-Aminosulfonylphenyl)-5-fluoro-N4-[1-(methylaminocarbonyl)-1,2,3,4-tetrahydroquin-6-yl]-2,4-pyrimidinediamine]	–	–	IC50 [1, 4]: 286 nM; IC50 (Primary human T-cells; [5]): 698 nM
Cc1ccc(Nc2ncc(C)c(Nc3ccc4c(c3)N(C)C(=O)CS4)n2)cc1S(N)(=O)=O [VII-33, N2-(3-Aminosulphonyl-4-methylphenyl)-5-methyl-N4-(4-methyl-3-oxo-benzo[1,4]thiazin-6-yl)-2,4-pyrimidinediamine]	28.9	18.4	–
Cc1cnc(Nc2ccc(S(N)(=O)=O)cc2)nc1Nc1ccc2c(c1)N(C)C(=O)CS2 [VII-34, N2-(4-Aminosulphonylphenyl)-5-methyl-N4-(4-methyl-3-oxo-benzo[1,4]thiazin-6-yl)-2,4-pyrimidinediamine]	45	22.5	–
COc1c(C)cc(Nc2ncc(F)c(Nc3ccc4c(c3)NC(=O)C(F)(F)O4)n2)cc1S(N)(=O)=O [VII-38, N2-(3-Aminosulfonyl-4-methoxy-5-methylphenyl)-N4-(2,2-difluoro-4H-benz[1,4]oxazin-3-on-6-yl)-5-fluoro-2,4-pyrimidinediamine]	62.3	417	–
CC1(C)Oc2ccc(Nc3nc(Nc4cccc(S(N)(=O)=O)c4)ncc3N)cc2NC1=O [VII-39, 5-Amino-N2-(3-amionsulfonylphenyl)-N4-(2,2-dimethyl-3-oxo-4H-benz[1,4]oxazin-6-yl)-2,4-pyrimidinediamine]	–	–	IC50 [1, 4]: 772 nM; IC50 (Primary human T-cells; [5]): 919 nM
CN1C(=O)COc2ccc(Nc3nc(Nc4ccc(S(N)(=O)=O)cc4)ncc3F)cc21 [VII-40, N2-(4-Aminosulfonylphenyl)-5-fluoro-N4-(4-methyl-3-oxo-benz[1,4]oxazin-6-yl)-2,4-pyrimidinediamine]	236	6480	–
CN1C(=O)COc2ccc(Nc3nc(Nc4cccc(S(N)(=O)=O)c4)ncc3F)cc21 [VII-41, N2-(3-Aminosulfonylphenyl)-5-fluoro-N4-(4-methyl-3-oxo-benz[1,4]oxazin-6-yl)-2,4-pyrimidinediamine]	46.9	264	–
CC1(C)Oc2cc(Nc3nc(Nc4cccc(S(N)(=O)=O)c4)ncc3F)cnc2NC1=O [VII-51, N2-(3-Aminosulfonylphenyl)-N4-[2,2-dimethyl-3-oxo-4H-5-pyrid[1,4]oxazin-7-yl]-5-fluoro-2,4-pyrimidinediamine]	–	–	IC50 [1, 4]: 541 nM; IC50 (Primary human T-cells; [5]): 1790 nM
CC(C)(C)OC(=O)NC1CCOc2ccc(Nc3nc(Nc4ccc(S(N)(=O)=O)cc4)ncc3F)cc21 (centres unmarked) [VII-59, N2-(4-Aminosulfonylphenyl)-N4-(4-N-tert-butoxycarbonylamino-3,4-dihydro-2H-1-benzopyran-6-yl)-5-fluoro-2,4-pyrimidinediamine]	–	–	IC50 [1, 4]: 831 nM; IC50 (Primary human T-cells; [5]): 2990 nM
Cc1ccc(Nc2ncc(F)c(Nc3ccc4ccccc4n3)n2)cc1S(N)(=O)=O [VII-64, N2-(3-Aminosulfonyl-4-methylphenyl)-5-fluoro-N4-(quinolin-2-yl)-2,4-pyrimidinediamine]	363	3810	–

Molecule	IC50 [1, 2] [nM]	IC50 (Primary human T-cells; [3]) [nM]	other results
Cc1ccc(Nc2ncc(F)c(Nc3cnc4ccccc4c3)n2)cc1S(N)(=O)=O [VII-65, N2-(3-Aminosulfonyl-4-methylphenyl)-5-fluoro-N4-(quinolin-3-yl)-2,4-pyrimidinediamine]	385	3060	–
NS(=O)(=O)c1cccc(Nc2ncc(F)c(Nc3cnc4ccccc4c3)n2)c1 [VII-66, N2-(3-Aminosulfonylphenyl)-5-fluoro-N4-(quinolin-3-yl)-2,4-pyrimidinediamine]	369	2870	–
Cc1ccc(Nc2ncc(F)c(Nc3cccc4ncccc34)n2)cc1S(N)(=O)=O [VII-67, N2-(3-Aminosulfonyl-4-methylphenyl)-5-fluoro-N4-(quinolin-5-yl)-2,4-pyrimidinediamine]	315	768	–
NS(=O)(=O)c1cccc(Nc2ncc(F)c(Nc3cccc4ncccc34)n2)c1 [VII-68, N2-(3-Aminosulfonylphenyl)-5-fluoro-N4-(quinolin-5-yl)-2,4-pyrimidinediamine]	812	1300	–
NS(=O)(=O)c1cccc(Nc2ncc(F)c(Nc3cccc4cccnc34)n2)c1 [VII-78, N2-(3-Aminosulfonylphenyl)-5-fluoro-N4-(quinolin-8-yl)-2,4-pyrimidinediamine]	85.8	682	–
NS(=O)(=O)c1cc(Nc2ncc(F)c(Nc3cccc4cccnc34)n2)ccc1F [VII-79, N2-(3-Aminosulfonyl-4-fluorophenyl)-5-fluoro-N4-(quinolin-8-yl)-2,4-pyrimidinediamine]	206	3200	–
Cc1ccc(Nc2ncc(F)c(N[C@H]3[C@@H](C(N)=O)[C@@H]4C=C[C@H]3C4)n2)cc1S(N)(=O)=O [VII-82, (1R,2R,3S,4S)N4-(3-Aminocarbonylbicyclo[2.2.1]hept-5-en-2-yl)-N2-(3-aminosulfonyl-4-methylphenyl)-5-fluoro-2,4-pyrimidinediamine]	313	1080	–
COc1c(C)cc(Nc2ncc(F)c(N[C@H]3[C@@H](C(N)=O)[C@@H]4C=C[C@H]3C4)n2)cc1S(N)(=O)=O [VII-83, (1R,2R,3S,4S)N2-(3-Aminosulfonyl-4-methoxy-5-methylphenyl)-N4-(3-aminocarbonylbicyclo[2.2.1]hept-5-ene-2-yl)-5-fluoro-2,4-pyrimidinediamine]	77.5	937	–
N2-(3-Aminocarbonyl-5-methylphenyl)-5-fluoro-N2-[4-(1H-pyrazol-5-yl)amidophenyl)-2,4-pyrimidinediamine [II-22]	–	–	IC50 [1, 6]: 858 nM; IC50 (Primary human T-cells; [7]): 7490 nM
N2-(3-Aminosulfonyl-4-chlorophenyl)-N4-(4-benzylphenyl)-5-fluoro-2,4-pyrimidinediamine [III-64]	–	–	IC50 [1, 6]: 447 nM; IC50 (Primary human T-cells; [7]): 5960 nM
N2-(3-Aminosulfonyl-4-methoxy-5-methylphenyl)-5-fluoro-N4-(4-trifluoromethylphenyl)-2,4-pyrimidinediamine [VI-34]	–	–	IC50 [1, 4]: 157 nM; IC50 (Primary human T-cells; [5]): 839 nM
N2-(3-Aminosulfonyl-4-methoxy-5-methylphenyl)-N4-(4-benzylphenyl)-5-fluoro-2,4-pyrimidinediamine [III-65]	–	–	IC50 [1, 6]: 209 nM; IC50 (Primary human T-cells; [7]): 936 nM
N2-(3-Aminosulfonyl-4-methoxy-5-methylphenyl)-N4-(4-chloro-3-trifluoromethyl-phenyl)-5-fluoro-2,4-pyrimidinediamine [VI-40]	–	–	IC50 [1, 4]: 288 nM; IC50 (Primary human T-cells; [5]): 1240 nM
N2-(3-Aminosulfonyl-4-methylphenyl)-N4-(4-benzylphenyl)-5-fluoro-2,4-pyrimidinediamine [III-63]	–	–	IC50 [1, 6]: 315 nM; IC50 (Primary human T-cells; [7]): 1880 nM
N2-(3-Aminosulfonyl-4-methylphenyl)-N4-(4-ethylaminocarbonylaminomethylphenyl)-5-fluoro-2,4-pyrimidinedia [III-121]	–	–	IC50 [1, 4]: 575 nM; IC50 (Primary human T-cells; [5]): 1020 nM
N2-(3-Aminosulfonylphenyl)-N4-(4-chloro-3-trifluoromethylphenyl)-5-fluoro-2,4-pyrimidinediamine [VI-38]	–	–	IC50 [1, 4]: 414 nM; IC50 (Primary human T-cells; [5]): 2070 nM
N4-(4-Acetylthiomethylcarbonylphenyl)-N2-(3-aminosulfonyl-4-methylphenyl)-5-fluoro-2,4-pyrimidinediamine [IX-43]	–	–	IC50 [1, 4]: 523 nM; IC50 (Primary human T-cells; [5]): 2800 nM
